Literature values in patent US12616707B2, “Compositions and methods for improving gut health” (Plexus Worldwide, LLC., priority 2017, dated 2026).

Assays:
[1] = system: DSS-induced colitis model; details: chlorogenic acid supplementation
[2] = 0.02% (wt/wt) in high-fat diet vs high-fat control group

## O=C(/C=C/c1ccc(O)c(O)c1)O[C@@H]1C[C@](O)(C(=O)O)C[C@@H](O)[C@H]1O [chlorogenic acid]
[1]
  IL-1β expression: significant suppression
high-fat fed mice; [2]
  Body weight: significantly lowered
  Plasma insulin levels: significantly lowered
  Plasma leptin levels: significantly lowered
  Visceral fat mass: significantly lowered
high-fat fed mice; high-fat diet
  Cholesterol concentrations (plasma, adipose tissue and heart): lowered
  Triglyceride concentrations (plasma, liver and heart): lowered
